In patent publication US10512634B2, “Benzimidazole derivates useful as inhibitors of mammalian histone deacetylase activity” (KANCERA AB, priority 2015, dated 2019):
Counter-ions that a name gives are not always drawn.

Each molecule was assayed against HDAC6 (Homo sapiens (Human), UniProt Q9UBN7) (assay: HDAC in vitro enzymatic assay (fluorescence)). Settings: top concentration 2 μM; read-out: IC50 values for inhibition of HDAC6.
Format: biochemical
Procedure: Biological Tests Method for Measurement of Enzymatic Activity of HDACs Materials & Methods
All Examples were tested in HDAC1, 2, 3, 6 and 8 in vitro enzymatic assays. The assay principle is well known (Hauser et al. 2009, Bradner et al. 2010) and all necessary reagents like enzymes, substrates, developer and reference compounds are commercially available (see e.g. BPS Biosciences http://www.bpsbioscience.com/). A series of dilutions of the compounds were prepared with a top concentration of 200 μM (2 μM for HDAC6). The enzymatic reactions were conducted in a mixture containing assay buffer, bovine serum albumin, HDAC substrate, and a test compound. After enzymatic reaction, developer was added and after an additional incubation time, fluorescence intensity was measured at an excitation wavelength of 360 nm and an emission wavelength of 460 nm. A selection of the Examples were tested in a full HDAC panel containing HDAC1, 2, 3, 4, 5, 6, 7, 8, 9, 10 and 11 in vitro enzymatic assays. The tests were performed as above except that a series of dilutions of the compounds were prepared with a top concentration of 10 μM for all HDACs.

SMILES | IC50 [nM]
O=C(NO)c1ccc2nc(-c3ccc4c(c3)OCCO4)[nH]c2c1 [Example 11, 2-(2,3-dihydro-1,4-benzodioxin-6-yl)-N-hydroxy-1H-benzimidazole-6-carboxamide] | 110
O=C(NO)c1ccc2nc(-c3ccnc4ccccc34)[nH]c2c1 [Example 66, N-hydroxy-2-quinolin-4-yl-1H-benzimidazole-6-carboxamide trifluoroacetate] | 14
C#Cc1ccc(-c2nc3ccc(C(=O)NO)cc3[nH]2)cc1 [Example 80, 2-(4-ethynylphenyl)-N-hydroxy-1H-benzimidazole-6-carboxamide] | 19
COc1cccc(-c2nc3ccc(C(=O)NO)cc3[nH]2)c1O [Example 85, N-hydroxy-2-(2-hydroxy-3-methoxyphenyl)-1H-benzimidazole-6-carboxamide] | 13
Cn1c(-c2nc3ccc(C(=O)NO)cc3[nH]2)cc2ccccc21 [Example 112, N-hydroxy-2-(1-methyl-1H-indol-2-yl)-1H-benzimidazole-6-carboxamide] | 15
COc1ccc(Oc2cccc(-c3nc4ccc(C(=O)NO)cc4[nH]3)c2)cc1 [Example 113, N-hydroxy-2-[3-(4-methoxyphenoxy)phenyl]-1H-benzimidazole-6-carboxamide] | 6.6
CCN(CC)CCOc1ccc(-c2nc3ccc(C(=O)NO)cc3[nH]2)cc1 [Example 125, 2-{4-[2-(diethylamino)ethoxy]phenyl}-N-hydroxy-1H-benzimidazole-6-carboxamide] | 14
O=C(NO)c1ccc2nc(-c3cccc(OCCOc4ccccc4)c3)[nH]c2c1 [Example 134, N-hydroxy-2-[3-(2-phenoxyethoxy)phenyl]-1H-benzimidazole-6-carboxamide] | 18
COc1ccc(-c2ccc(-c3nc4ccc(C(=O)NO)cc4[nH]3)o2)cc1OC [Example 174, 2-[5-(3,4-dimethoxyphenyl)furan-2-yl]-N-hydroxy-1H-benzimidazole-6-carboxamide] | 4.7
O=C(NO)c1ccc2nc(-c3ccc(-c4ccccc4F)s3)[nH]c2c1 [Example 176, 2-[5-(2-fluorophenyl)thiophen-2-yl]-N-hydroxy-1H-benzimidazole-6-carboxamide] | 2.9
O=C(NO)c1ccc2nc(-c3ccc(-c4ccccc4)s3)[nH]c2c1 [Example 179, N-hydroxy-2-(5-phenylthiophen-2-yl)-1H-benzimidazole-6-carboxamide] | 3.1
O=C(NO)c1ccc2nc(-c3ccc(-c4cccc(CN5CCCCC5)c4)cc3)[nH]c2c1 [Example 186, N-hydroxy-2-[3′-(piperidin-1-ylmethyl)biphenyl-4-yl]-1H-benzimidazole-6-carboxamide trifluoroacetate] | 4.1
COCCCNCc1ccc(-c2ccc(-c3nc4ccc(C(=O)NO)cc4[nH]3)cc2)cc1 [Example 191, N-hydroxy-2-(4′-{[(3-methoxypropyl)amino]methyl}biphenyl-4-yl)-1H-benzimidazole-6-carboxamide trifluoroacetate] | 18
O=C(NO)c1ccc2nc(-c3ccc(-c4ccc(/C=N/O)cc4)cc3)[nH]c2c1 [Example 193, N-hydroxy-2-{4′-[(E)-(hydroxyimino)methyl]biphenyl-4-yl}-1H-benzimidazole-6-carboxamide] | 11
CN(C)C(=O)c1cccc(-c2ccc(-c3nc4ccc(C(=O)NO)cc4[nH]3)cc2)c1 [Example 195, 2-[3′-(dimethylcarbamoyl)biphenyl-4-yl]-N-hydroxy-1H-benzimidazole-6-carboxamide] | 24
O=C(NO)c1ccc2nc(-c3ccc(-c4ccc(CN5CCCC5)cc4)cc3)[nH]c2c1 [Example 197, N-hydroxy-2-[4′-(pyrrolidin-1-ylmethyl)biphenyl-4-yl]-1H-benzimidazole-6-carboxamide trifluoroacetate] | 3.6
